{"source": "patent US6982283B2", "about": "“Method for treating drug-induced constipation” (Sucampo AG, priority 2001, dated 2006)", "format_in_all_cases": "in vivo", "key": {"[1]": {"system": "Male ICR mice", "assay": "Antagonism to imipramine-induced constipation: carbon marker in the caecum", "method": "Male ICR mice were fasted overnight in wire-bottomed cages to prevent coprophagia, and 10 mice were used for each group. Imipramine hydrochloride (Wako Pure Chemical Industries, Ltd., Osaka, Japan) at 60 mg/kg was injected intraperitoneally to the animals. Immediately after the imipramine-injection, 0.1 mL of carbon marker (10% carbon powder suspension in 5% gum Arabic) and vehicle (physiological saline solution containing 0.01% polysorbate 80 and 0.5% ethanol) or test substance (13,14-dihydro-15-keto-16,16-difluoro-PGE1) in an administration volume of 5 mL/kg were orally administered. A normal control group received carbon marker and vehicle in the above volume orally without the imipramine-injection. One hundred and fifty minutes after the administration of carbon marker, animals were sacrificed by cervical dislocation, and examined the caecum for the presence of carbon marker. It was judged as a positive response when carbon marker was found in the caecum (positive scores).\nThe effect to the imipramine-induced constipation was evaluated on the cathartic (sennoside) clinically used for the treatment of the constipation in patients. Preparation and dose levels of sennoside were the same as described in example 2. The experimental procedure was the same as described in example 4."}, "[2]": {"system": "Male ICR mice", "assay": "Antagonism to morphine-induced constipation: graphite marker in the caecum", "details": "for Effect on morphine-induced constipation: at the clinical daily dosage and at 10 times of the clinical daily dosage"}, "[3]": {"system": "Male ICR mice", "assay": "Effect on analgesic action of morphine: tail-pinch response time", "method": "Male ICR mice were fasted overnight in wire-bottomed cages to prevent coprophagia. The tail of the animal was pinched with clamp forceps, and the response time from the tail-pinch to fierce striking, biting or crying was measured. 18 mice whose response time of 2 second or shorter were used as test animals. […] Immediately after the morphine-injection, vehicle (physiological saline containing 0.01% polysorbate 80 and 0.5% ethanol) or 1, 10, or 100 μg/kg test substance (13,14-dihydro-15-keto-16,16-difluoro-PGE1) dissolved in the vehicle was administered orally in an administration volume of 5 mL/kg. The animals of normal control group received vehicle orally in the above volume without morphine-injection.\nThe response time of each animal following tail-pinch was measured 30, 60, 90, 120 and 150 minutes after the administration. If a mouse took longer than 10 seconds to respond, measurement was stopped to avoid injuring the tail tissue, and the response time was recorded as 10 second."}, "[4]": {"details": "imipramine 60 mg/kg i.p. + sennoside 0.48 μg/kg, 150 min after carbon marker"}, "[5]": {"details": "imipramine 60 mg/kg i.p. + sennoside 4.8 μg/kg, 150 min after carbon marker"}, "[6]": {"details": "morphine 5 mg/kg i.p. + sennoside 0.48 mg/kg, 150 min after graphite marker"}, "[7]": {"details": "morphine 5 mg/kg i.p. + sennoside 4.8 mg/kg, 150 min after graphite marker"}, "[8]": {"details": "imipramine 60 mg/kg i.p. + vehicle orally, Example 4, Table 5"}, "[9]": {"details": "imipramine 60 mg/kg i.p. + vehicle, Example 5, Table 6"}, "[10]": {"details": "morphine 5 mg/kg i.p. + sodium picosulfate 0.15 mg/kg, 150 min after graphite marker"}, "[11]": {"details": "morphine 5 mg/kg i.p. + sodium picosulfate 1.5 mg/kg, 150 min after graphite marker"}, "[12]": {"details": "imipramine 60 mg/kg i.p. + test substance 10 μg/kg orally, 150 min after carbon marker"}, "[13]": {"details": "imipramine 60 mg/kg i.p. + test substance 100 μg/kg orally, 150 min after carbon marker"}}, "note": "Structures can show the parent of a compound that is named as a salt. Marks after values point to notes of the source that are not given here."}
{"compound": "Sennoside", "values": [{"measurement": "Effect on the imipramine-induced constipation", "setting": "[1]; Example 5, results of Table 6", "result": "no effect"}, {"measurement": "Number of animals with positive scores/Number of animals tested", "setting": "[1]; [4]", "result": "2/10"}, {"measurement": "Ratio of animals with positive scores", "setting": "[1]; [4]", "result": 20, "unit": "%"}, {"measurement": "Number of animals with positive scores/Number of animals tested", "setting": "[1]; [5]", "result": "2/10"}, {"measurement": "Ratio of animals with positive scores", "setting": "[1]; [5]", "result": 20, "unit": "%"}, {"measurement": "Effect on morphine-induced constipation", "setting": "[2]", "result": "no effect"}, {"measurement": "Number of animals with positive scores/Number of animals tested", "setting": "[2]; [6]", "result": "2/10"}, {"measurement": "Ratio of animals with positive scores", "setting": "[2]; [6]", "result": 20, "unit": "%"}, {"measurement": "Number of animals with positive scores/Number of animals tested", "setting": "[2]; [7]", "result": "2/10"}, {"measurement": "Ratio of animals with positive scores", "setting": "[2]; [7]", "result": 20, "unit": "%"}]}
{"compound": "CN1CC[C@]23c4c5ccc(O)c4O[C@H]2[C@@H](O)C=C[C@H]3[C@H]1C5.Cl", "note": "[Morphine, Morphine hydrochloride, reference compound]", "values": [{"measurement": "Response time, mean ± S.E.", "setting": "[3]; morphine 5 mg/kg i.p. + vehicle orally, 30 min after administration", "result": "2.8 ± 0.6", "unit": "s"}, {"measurement": "Response time, mean ± S.E.", "setting": "[3]; morphine 5 mg/kg i.p. + vehicle orally, 60 min after administration", "result": "1.9 ± 0.3", "unit": "s"}, {"measurement": "Response time, mean ± S.E.", "setting": "[3]; morphine 5 mg/kg i.p. + vehicle orally, 90 min after administration", "result": "1.8 ± 0.4^+ sec."}, {"measurement": "Response time, mean ± S.E.", "setting": "[3]; morphine 5 mg/kg i.p. + vehicle orally, 120 min after administration", "result": "1.4 ± 0.2", "unit": "s"}, {"measurement": "Response time, mean ± S.E.", "setting": "[3]; morphine 5 mg/kg i.p. + vehicle orally, 150 min after administration", "result": "1.2 ± 0.1", "unit": "s"}, {"measurement": "Response time, mean ± S.E.", "setting": "[3]; morphine 5 mg/kg i.p. + vehicle orally, before administration", "result": "1.0 ± 0.1", "unit": "s"}, {"measurement": "Number of animals with positive scores/Number of animals tested", "setting": "[2]; morphine 5 mg/kg i.p. + vehicle (0.5% tragacanth solution), Example 2, Table 2", "result": "2/10"}, {"measurement": "Number of animals with positive scores/Number of animals tested", "setting": "[2]; morphine 5 mg/kg i.p. + vehicle (physiological saline), Example 2, Table 3", "result": "3/10"}, {"measurement": "Number of animals with positive scores/Number of animals tested", "setting": "[2]; morphine 5 mg/kg i.p. + vehicle (saline, 0.01% polysorbate 80, 0.5% ethanol) orally, Example 1, Table 1", "result": 3}, {"measurement": "Number of animals with positive scores/Number of animals tested", "setting": "[2]; morphine 5 mg/kg i.p. + vehicle (saline, 0.01% polysorbate 80, 0.5% ethanol) orally, Example 1, Table 1, hydrochloride", "result": "3/15"}]}
{"compound": "CN(C)CCCN1c2ccccc2CCc2ccccc21", "note": "[Imipramine, Imipramine hydrochloride]", "values": [{"measurement": "Number of animals with positive scores/Number of animals tested", "setting": "[1]; [8]", "result": "1/10"}, {"measurement": "Ratio of animals with positive scores", "setting": "[1]; [8]", "result": 10, "unit": "%"}, {"measurement": "Number of animals with positive scores/Number of animals tested", "setting": "[1]; [9]", "result": "1/10"}, {"measurement": "Ratio of animals with positive scores", "setting": "[1]; [9]", "result": 10, "unit": "%"}]}
{"compound": "O=S(=O)(O)Oc1ccc(C(c2ccc(OS(=O)(=O)O)cc2)c2ccccn2)cc1", "note": "[sodium picosulfate, Sodium picosulfate]", "values": [{"measurement": "Effect on morphine-induced constipation", "setting": "[2]", "result": "no effect"}, {"measurement": "Number of animals with positive scores/Number of animals tested", "setting": "[2]; [10]", "result": "3/10"}, {"measurement": "Ratio of animals with positive scores", "setting": "[2]; [10]", "result": 30, "unit": "%"}, {"measurement": "Number of animals with positive scores/Number of animals tested", "setting": "[2]; [11]", "result": "4/10"}, {"measurement": "Ratio of animals with positive scores", "setting": "[2]; [11]", "result": 40, "unit": "%"}]}
{"compound": "CCCCC(F)(F)C(=O)CCC1C(O)CC(=O)C1CCCCCCC(=O)O", "note": "(centres unmarked) [test substance, 13,14-dihydro-15-keto-16,16-difluoro-PGE1]", "values": [{"measurement": "Response time, mean ± S.E.", "setting": "[3]; morphine 5 mg/kg i.p. + test substance 1 μg/kg orally, 30 min after administration", "result": "3.2 ± 0.7", "unit": "s"}, {"measurement": "Response time, mean ± S.E.", "setting": "[3]; morphine 5 mg/kg i.p. + test substance 1 μg/kg orally, 60 min after administration", "result": "2.3 ± 0.6^+ sec."}, {"measurement": "Response time, mean ± S.E.", "setting": "[3]; morphine 5 mg/kg i.p. + test substance 1 μg/kg orally, 90 min after administration", "result": "1.5 ± 0.2", "unit": "s"}, {"measurement": "Response time, mean ± S.E.", "setting": "[3]; morphine 5 mg/kg i.p. + test substance 1 μg/kg orally, 120 min after administration", "result": "1.3 ± 0.1", "unit": "s"}, {"measurement": "Response time, mean ± S.E.", "setting": "[3]; morphine 5 mg/kg i.p. + test substance 1 μg/kg orally, 150 min after administration", "result": "1.3 ± 0.1", "unit": "s"}, {"measurement": "Response time, mean ± S.E.", "setting": "[3]; morphine 5 mg/kg i.p. + test substance 1 μg/kg orally, before administration", "result": "1.0 ± 0.1", "unit": "s"}, {"measurement": "Response time, mean ± S.E.", "setting": "[3]; morphine 5 mg/kg i.p. + test substance 10 μg/kg orally, 30 min after administration", "result": "3.4 ± 0.5", "unit": "s"}, {"measurement": "Response time, mean ± S.E.", "setting": "[3]; morphine 5 mg/kg i.p. + test substance 10 μg/kg orally, 60 min after administration", "result": "1.8 ± 0.2", "unit": "s"}, {"measurement": "Response time, mean ± S.E.", "setting": "[3]; morphine 5 mg/kg i.p. + test substance 10 μg/kg orally, 90 min after administration", "result": "1.4 ± 0.1", "unit": "s"}, {"measurement": "Response time, mean ± S.E.", "setting": "[3]; morphine 5 mg/kg i.p. + test substance 10 μg/kg orally, 120 min after administration", "result": "1.3 ± 0.1", "unit": "s"}, {"measurement": "Response time, mean ± S.E.", "setting": "[3]; morphine 5 mg/kg i.p. + test substance 10 μg/kg orally, 150 min after administration", "result": "1.2 ± 0.1", "unit": "s"}, {"measurement": "Response time, mean ± S.E.", "setting": "[3]; morphine 5 mg/kg i.p. + test substance 10 μg/kg orally, before administration", "result": "1.0 ± 0.1", "unit": "s"}, {"measurement": "Response time, mean ± S.E.", "setting": "[3]; morphine 5 mg/kg i.p. + test substance 100 μg/kg orally, 30 min after administration", "result": "2.9 ± 0.6", "unit": "s"}, {"measurement": "Response time, mean ± S.E.", "setting": "[3]; morphine 5 mg/kg i.p. + test substance 100 μg/kg orally, 60 min after administration", "result": "1.8 ± 0.3", "unit": "s"}, {"measurement": "Response time, mean ± S.E.", "setting": "[3]; morphine 5 mg/kg i.p. + test substance 100 μg/kg orally, 90 min after administration", "result": "1.5 ± 0.1", "unit": "s"}, {"measurement": "Response time, mean ± S.E.", "setting": "[3]; morphine 5 mg/kg i.p. + test substance 100 μg/kg orally, 120 min after administration", "result": "1.2 ± 0.1", "unit": "s"}, {"measurement": "Response time, mean ± S.E.", "setting": "[3]; morphine 5 mg/kg i.p. + test substance 100 μg/kg orally, 150 min after administration", "result": "1.3 ± 0.1", "unit": "s"}, {"measurement": "Response time, mean ± S.E.", "setting": "[3]; morphine 5 mg/kg i.p. + test substance 100 μg/kg orally, before administration", "result": "1.0 ± 0.1", "unit": "s"}, {"measurement": "Effect on the analgesic action of morphine", "setting": "[3]; test substance 1, 10 or 100 μg/kg orally, compared with morphine+vehicle group", "result": "did not affect"}, {"measurement": "Number of animals with positive scores/Number of animals tested", "setting": "[1]; [12]", "result": "3/10"}, {"measurement": "Ratio of animals with positive scores", "setting": "[1]; [12]", "result": 30, "unit": "%"}, {"measurement": "Number of animals with positive scores/Number of animals tested", "setting": "[1]; [13]", "result": "7/10**"}, {"measurement": "Ratio of animals with positive scores", "setting": "[1]; [13]", "result": 70, "unit": "%"}, {"measurement": "Ratio of animals with positive scores", "setting": "[2]; morphine 5 mg/kg i.p. + test substance 1 μg/kg orally, 150 min after graphite marker", "result": 60, "unit": "%"}, {"measurement": "Ratio of animals with positive scores", "setting": "[2]; morphine 5 mg/kg i.p. + test substance 10 μg/kg orally, 150 min after graphite marker", "result": 87, "unit": "%"}, {"measurement": "Ratio of animals with positive scores", "setting": "[2]; morphine 5 mg/kg i.p. + test substance 100 μg/kg orally, 150 min after graphite marker", "result": 93, "unit": "%"}, {"measurement": "Antagonism of morphine-induced constipation compared with control (morphine+vehicle) group", "setting": "[2]; test substance 1, 10 or 100 μg/kg orally immediately after morphine", "result": "significantly antagonized"}]}
